The values that follow come from patent publication US20070249590A1, “Substituted indolo[2,3-a]pyrrolo[3,4-c]carbazole compounds useful in treating kinase disorders” (priority 2005, published 2007).

The term pIC50 denotes the negative decadic logarithm of the IC50, by convention in mol/L.

pIC50: −log10 of the molar value.

For this test, the target named is T1, JAK3 (JH1 and JH2 domain) (Homo sapiens, UniProt P52333).
T1 sequence (P52333 521-1111 limits assumed): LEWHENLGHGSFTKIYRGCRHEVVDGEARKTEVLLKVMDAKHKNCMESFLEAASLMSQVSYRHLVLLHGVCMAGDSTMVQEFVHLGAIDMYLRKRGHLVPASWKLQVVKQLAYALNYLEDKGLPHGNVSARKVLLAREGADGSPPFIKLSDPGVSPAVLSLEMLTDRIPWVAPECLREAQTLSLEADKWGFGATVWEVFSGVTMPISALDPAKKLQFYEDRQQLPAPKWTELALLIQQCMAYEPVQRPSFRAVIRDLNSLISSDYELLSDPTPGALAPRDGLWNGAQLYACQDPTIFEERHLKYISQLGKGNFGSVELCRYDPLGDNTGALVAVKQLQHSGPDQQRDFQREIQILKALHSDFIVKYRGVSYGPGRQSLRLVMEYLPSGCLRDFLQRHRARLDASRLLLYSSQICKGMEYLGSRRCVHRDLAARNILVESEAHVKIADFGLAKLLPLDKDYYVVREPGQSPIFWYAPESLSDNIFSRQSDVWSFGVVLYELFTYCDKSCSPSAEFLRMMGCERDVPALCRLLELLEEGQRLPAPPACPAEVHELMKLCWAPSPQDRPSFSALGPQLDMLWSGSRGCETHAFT
Description: JAK3 Kinase Assay (ELISA of peptide substrate phosphorylation). The class given is biochemical. Particulars: purified JAK3 enzyme, 10 μM ATP, biotinylated peptide substrate, 1 hour at room temperature. In short, it runs like this:
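Sf21-baculovirus-expressed JAK3 (JH1+JH2), glutathione-bead purified, with biotinylated peptide substrate (in buffer containing 10 μM ATP) in HEPES pH 7.5/MgCl2/DTT, 1 h RT. Product was captured on Neutravidin, detected with HRP anti-phosphotyrosine (PY99)/TMB, OD 450/650 nm. Triplicate 16-point half-log series from 200 μM gave IC50; otherwise % inhibition at 1 μM.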
For orientation: In an ELISA, binding on a coated surface is turned into a signal by an enzyme label.
As to `Cc1ccc(CNC(=O)OCC2Cn3c4ccccc4c4c5c(c6c7ccccc7n(c6c43)C2)C(=O)NC5)o1` (stereo not drawn) [Cpd 156, 12,13-(2-{[(5-methyl-furan-2-yl)methyl]carbamoyloxymethyl}-propan-1,3-yl)-6,7,12,13-tetrahydro-5-oxo-5H-indolo[2,3-a]pyrrolo[3,4-c]carbazole], the pIC50 is about 6.70.

In the case of `O=C1NCc2c1c1c3ccccc3n3c1c1c2c2ccccc2n1CC(COC(=O)N1CCC(N2CCCC2)CC1)C3` (stereo not drawn) [Cpd 162, 12,13-{2-[(4-pyrrolidin-1-yl-piperidin-1-yl)carbonyloxymethyl]-propan-1,3-yl}-6,7,12,13-tetrahydro-5-oxo-5H-indolo[2,3-a]pyrrolo[3,4-c]carbazole], the pIC50 was 6.18. The value for `NC1CCN(C(=O)OCC2(O)Cn3c4ccccc4c4c5c(c6c7ccccc7n(c6c43)C2)C(=O)NC5)CC1` (stereo not drawn) [Cpd 176, 12,13-{2-hydroxy-2-[(4-amino-piperidin-1-yl)carbonyloxymethyl]-propan-1,3-yl}-6,7,12,13-tetrahydro-5-oxo-5H-indolo[2,3-a]pyrrolo[3,4-c]carbazole] was 6.75; that for `O=C(NCc1ccncc1)OC1CCn2c3ccccc3c3c4c(c5c6ccccc6n(c5c32)C1)C(=O)NC4=O` (stereo not drawn) [Cpd 47, 12,13-{2-[(pyridin-4-yl-methyl)carbamoyloxy]-butan-1,4-yl}-12,13-dihydro-5,7-dioxo-6H-indolo[2,3-a]pyrrolo[3,4-c]carbazole] was 7.52; that for `O=C(NCCCN1CCCC1=O)OCC1(O)Cn2c3ccccc3c3c4c(c5c6ccccc6n(c5c32)C1)C(=O)NC4` (stereo not drawn) [Cpd 140, 12,13-(2-hydroxy-2-{[3-(2-oxo-pyrrolidin-1-yl)-prop-1-yl]carbamoyloxymethyl}-propan-1,3-yl)-6,7,12,13-tetrahydro-5-oxo-5H-indolo[2,3-a]pyrrolo[3,4-c]carbazole] was 7.14. The value for `CN(C)CCN(C)C(=O)OC1Cn2c3ccccc3c3c4c(c5c6ccccc6n(c5c32)CC1O)C(=O)NC4=O` (stereo not drawn) [Cpd 107, 12,13-(2-{[N-methyl-N-(2-dimethylamino-ethyl)]carbamoyloxy}-3-hydroxy-butan-1,4-yl)-12,13-dihydro-5,7-dioxo-6H-indolo[2,3-a]pyrrolo[3,4-c]carbazole] was 6.74; that for `O=C1NC(=O)c2c1c1c3cc(-c4cncnc4)ccc3n3c1c1c2c2ccccc2n1CC(O)CC3` (stereo not drawn) [Cpd 34, 3-pyrimidin-5-yl-12,13-(2-hydroxy-butan-1,4-yl)-12,13-dihydro-5,7-dioxo-6H-indolo[2,3-a]pyrrolo[3,4-c]carbazole] was 7.18; that for `O=C1NCc2c1c1c3ccccc3n3c1c1c2c2ccccc2n1CC(COC(=O)N1CCN(c2ccc(O)cc2)CC1)C3` (stereo not drawn) [Cpd 158, 12,13-(2-{[4-(4-hydroxy-phenyl)piperazin-1-yl]carbonyloxymethyl}-propan-1,3-yl)-6,7,12,13-tetrahydro-5-oxo-5H-indolo[2,3-a]pyrrolo[3,4-c]carbazole] was 6.91. The result for `O=C1NCc2c1c1c3ccccc3n3c1c1c2c2ccccc2n1CC/C=C\CC3` [Cpd 5, 12,13-(hex-3-en-1,6-yl)-6,7,12,13-tetrahydro-5-oxo-5H-indolo[2,3-a]pyrrolo[3,4-c]carbazole] reads 7.41.

As to `CN1CCN(CCCNC(=O)OC2CCCn3c4ccccc4c4c5c(c6c7ccccc7n(c6c43)C2)C(=O)NC5=O)CC1` (stereo not drawn) [Cpd 116, 12,13-(2-{[3-(4-methyl-piperazin-1-yl)prop-1-yl]carbamoyloxy}-pentan-1,5-yl)-12,13-dihydro-5,7-dioxo-6H-indolo[2,3-a]pyrrolo[3,4-c]carbazole], the pIC50 was under 6.70. The result for `O=C1NC(=O)c2c1c1c3ccccc3n3c1c1c2c2ccccc2n1CC(OC(=O)N1CCCCC1)C(O)C3` (stereo not drawn) [Cpd 99, 12,13-[2-(piperidin-1-yl-carbonyloxy)-3-hydroxy-butan-1,4-yl]-12,13-dihydro-5,7-dioxo-6H-indolo[2,3-a]pyrrolo[3,4-c]carbazole] reads 6.74; that for `O=C1NC(=O)c2c1c1c3ccccc3n3c1c1c2c2ccccc2n1CC(OC(=O)N1CCOCC1)CC3` (stereo not drawn) [Cpd 71, 12,13-[2-(morpholin-4-yl-carbonyloxy)-butan-1,4-yl]-12,13-dihydro-5,7-dioxo-6H-indolo[2,3-a]pyrrolo[3,4-c]carbazole], 7.42.

Consider `O=C1NCc2c1c1c3cc(CN4CCOCC4)ccc3n3c1c1c2c2cc(CN4CCOCC4)ccc2n1CC(CO)C3` (stereo not drawn) [Cpd 214, 3,9-bis-(morpholin-4-ylmethyl)-12,13-(2-hydroxymethyl-propan-1,3-yl)-6,7,12,13-tetrahydro-5-oxo-5H-indolo[2,3-a]pyrrolo[3,4-c]carbazole], for which the pIC50 was under 4.30. Take `O=C(NCCCN1CCOCC1)OC1CCn2c3ccccc3c3c4c(c5c6ccccc6n(c5c32)C1)C(=O)NC4=O` (stereo not drawn) [Cpd 42, 12,13-{2-[(3-morpholin-4-yl-prop-1-yl)carbamoyloxy]-butan-1,4-yl}-12,13-dihydro-5,7-dioxo-6H-indolo[2,3-a]pyrrolo[3,4-c]carbazole]: the pIC50 was 6.83. With `Nc1ccc2c(c1)c1c3c(c4c5ccccc5n5c4c1n2CC(O)C(O)C5)CNC3=O` (stereo not drawn) [Cpd 192, 3-amino-12,13-(2,3-dihydroxy-butan-1,4-yl)-6,7,12,13-tetrahydro-5-oxo-5H-indolo[2,3-a]pyrrolo[3,4-c]carbazole], the pIC50 was 8.15. Take `CN(C)CCNC(=O)OCC1(O)Cn2c3ccccc3c3c4c(c5c6ccccc6n(c5c32)C1)C(=O)NC4` (stereo not drawn) [Cpd 173, 12,13-{2-hydroxy-2-[(2-dimethylamino-ethyl)carbamoyloxymethyl]-propan-1,3-yl}-6,7,12,13-tetrahydro-5-oxo-5H-indolo[2,3-a]pyrrolo[3,4-c]carbazole]: the pIC50 was 7.16. The value for `O=C1NCc2c1c1c3ccccc3n3c1c1c2c2ccccc2n1CC(O)(COC(=O)N1CCC(O)CC1)C3` (stereo not drawn) [Cpd 149, 12,13-{2-hydroxy-2-[(4-hydroxy-piperidin-1-yl)carbonyloxymethyl]-propan-1,3-yl}-6,7,12,13-tetrahydro-5-oxo-5H-indolo[2,3-a]pyrrolo[3,4-c]carbazole] was 7.41; that for `O=C(NCCCN1CCOCC1)OCC1Cn2c3ccccc3c3c4c(c5c6ccccc6n(c5c32)C1)C(=O)NC4` (stereo not drawn) [Cpd 165, 12,13-{2-[(3-morpholin-4-yl-prop-1-yl)carbamoyloxymethyl]-propan-1,3-yl}-6,7,12,13-tetrahydro-5-oxo-5H-indolo[2,3-a]pyrrolo[3,4-c]carbazole] was 6.56; that for `CC1(O)Cn2c3ccccc3c3c4c(c5c6ccccc6n(c5c32)CC1(C)O)C(=O)NC4` (stereo not drawn) [Cpd 20, 12,13-(2,3-dimethyl-2,3-dihydroxy-butan-1,4-yl)-6,7,12,13-tetrahydro-5-oxo-5H-indolo[2,3-a]pyrrolo[3,4-c]carbazole] was 7.92. The value for `O=C1NCc2c1c1c3cc(/C=C/c4ccccn4)ccc3n3c1c1c2c2ccccc2n1CC(CO)C3` (stereo not drawn) [Cpd 216, 3-[(2E)-2-pyridin-2-yl-ethenyl]-12,13-(2-hydroxymethyl-propan-1,3-yl)-6,7,12,13-tetrahydro-5-oxo-5H-indolo[2,3-a]pyrrolo[3,4-c]carbazole] was 6.51; that for `O=C1NC(=O)c2c1c1c3ccccc3n3c1c1c2c2ccccc2n1CC(OC(=O)N1CCN(CCO)CC1)CC3` (stereo not drawn) [Cpd 66, 12,13-(2-{[4-(2-hydroxy-ethyl)piperazin-1-yl]carbonyloxy}-butan-1,4-yl)-12,13-dihydro-5,7-dioxo-6H-indolo[2,3-a]pyrrolo[3,4-c]carbazole] was 7.40.
